Experimental data as given in patent publication US10450293B2, “Chemokine CXCR4 and CCR5 receptor modulators and uses related thereto” (Emory University, priority 2014, dated 2019).
Where two headings read alike, the source gives them in different places.

Legend:
HIV-1 IIIB = test: HIV-1 MAGI assay, IIIB (CXCR4 / T-tropic); format: cell-based
Experimental: (§1) Bayesian statistical models were constructed using known CXCR4 and CCR5 active compounds from literature, and these models were used to virtually screen 5 million compounds in the Aldrich Marketplace Select library. The screen yielded 14 compounds of interest that were then tested for their anti-HIV activity for both tropisms in MAGI assay. Two compounds (FIG. 1, compounds 1 and 2) were active against both T and M tropic forms of HIV with IC50 values of ˜20 μM. These initial hits were followed-up by a second round of virtual screening based on similarity and sub-structure searching. Another 24 compounds were purchased from the same database and tested. […] This compound was then subjected to a series of biological evaluations to determine activity profile and confirm mechanism of action.

[1] = target: T1, HIV-1 reverse transcriptase (Human immunodeficiency virus type 1 group M subtype B, UniProt P03366); test: biochemical; format: biochemical; conditions: for IC50: read-out: RT IC50
HIV-1 Ba-L = test: HIV-1 MAGI assay, Ba-L (CCR5 / M-tropic); format: cell-based; conditions: Human immunodeficiency virus 1, BAL
Experimental: as §1

MAGI toxicity = conditions: human, MAGI cells, TC50, table of synthesized compounds
CXCR4 [2] = target: T2, CXCR4 (Homo sapiens, UniProt P61073); test: Nef-M1:CXCR4 induced mitochondrial membrane depolarization (MMD) inhibition in Jurkat cells; format: cell-based; parameters: endogenous in cells; host or cells: Jurkat; conditions: in words
[3] = target: T1, HIV-1 reverse transcriptase; test: STD-NMR binding epitope study, HIV-1 reverse transcriptase; conditions: 1 mM compound, 30 ng/ml HIV reverse transcriptase
Experimental: (§2) Saturation Transfer Difference Spectroscopy (STD) was used to study the interactions between m7CCR5, HIV-1 reverse transcriptase, CXCR4, and compound 2 disclosed herein. Brandt et al., J Biol Chem. 2002, 277(19):17291-9. […] An on-resonance spectrum is recorded where m7CCR5 is selectively saturated giving rise to compound signals intensities.
(§3) The difference of off-resonance from the on-resonance spectrum results in the STD spectrum indicating proton that are in close contact to the protein surface. Non-binding protons cancelled out. The signal intensities can be quantified indicating the relative distance of the proton. Normalizing the measured STD intensities against the most intense can be expressed as percentages.
Spectra were collected on a 600 MHz Varian equipped with a triple-resonance cryoprobe, and STD spectra were collected with 512 scans at an on-resonance frequency of +0.5 ppm. Panel a) is a ^1H NMR spectrum of compound 2 in 100% deuterated phosphate buffered saline (PBS, pH=7.4). b) STD NMR spectrum of compound 2 in PBS in the absence of protein. c) STD NMR spectrum of 1 mM compound 2 in the presence of 30 ng/ml HIV reverse transcriptase (CalBioChem). d) Binding epitope of compound 2 binding to HIV-RT obtained by integrating the signals from (c).

CXCR4 [4] = target: T2, CXCR4; test: STD-NMR binding epitope study, CXCR4 in CHO membrane extracts; conditions: 1 mM compound, 30% CXCR4-expressing CHO membrane extracts
Experimental: as §2, §3
STD binding epitope studes of compound 2 interacting with CXCR4 obtained from Chinese Hamster Ovary (CHO) membrane extracts as shown in FIG. 2C.

m7CCR5 = test: STD-NMR binding epitope study, m7CCR5; conditions: 1 mM compound, 10 μM m7CCR5
Experimental: as §2, §3
STD binding epitope studies of compound 2 interacting with m7CCR5 (isolated, bacterially-expressed CCR5 construct) is shown in FIG. 2B. […] 100 mM HEPES, 150 mM NaCl, pH=7) in the absence of protein. c) STD NMR spectrum of 1 mM compound 2 in the presence of 10 μM m7CCR5 resolubilized in DDM/DOPC bicelle buffer. d) STDD spectrum of compound 2 binding to m7CCR5 obtained by subtracting (b) from (c). e) STDD binding epitope of compound 2 complexed to m7CCR5 obtained by integrating signals from (d).

CCR5 = target: T3, CCR5 (Homo sapiens, UniProt P51681); test: HeLa-C14:JRFL CD4-dependent cell-cell fusion assay; format: cell-based; conditions: luciferase readout, in words
T3 construct: expressed in transfected cells; host or cells: HeLa-C14
Text: Cell-cell fusion assays measure specifically co-receptor mediated inhibition of gp120-induced fusion in the absence of other viral machinery, and these assays were used to explore the CCR5- and CXCR4-specific antiviral activity. A cell-cell fusion assay was constructed to simulate HIV-1 entry in the absence of other viral machinery. The assay measured fusion of effector cells expressing the JRFL envelope (CCR5-tropic/CD4 dependent) with HeLa-C14 target cells (expressing CD4, CCR5, and CXCR4) using a luciferase readout (FIG. 5A).

[5] = system: NNRTI-resistant viral strain containing the K103N/Y181C mutations; format: cell-based
[6] = Human immunodeficiency virus 1, IIIB, MAGI, Table 3, read-out: MAGI Assay IC50 CXCR4
[7] = Table 3, read-out: MAGI Assay IC50 CCR5
[8] = Human immunodeficiency virus 1, IIIB, MAGI, table of synthesized compounds, read-out: X4-IC50
[9] = table of synthesized compounds, read-out: R5-IC50
[10] = Human immunodeficiency virus 1, IIIB, MAGI, value stated for both tropisms, read-out: IC50 against T tropic HIV in MAGI assay
[11] = MAGI, value stated for both tropisms, read-out: IC50 against M tropic HIV in MAGI assay

T2 sequence (P61073 whole entry): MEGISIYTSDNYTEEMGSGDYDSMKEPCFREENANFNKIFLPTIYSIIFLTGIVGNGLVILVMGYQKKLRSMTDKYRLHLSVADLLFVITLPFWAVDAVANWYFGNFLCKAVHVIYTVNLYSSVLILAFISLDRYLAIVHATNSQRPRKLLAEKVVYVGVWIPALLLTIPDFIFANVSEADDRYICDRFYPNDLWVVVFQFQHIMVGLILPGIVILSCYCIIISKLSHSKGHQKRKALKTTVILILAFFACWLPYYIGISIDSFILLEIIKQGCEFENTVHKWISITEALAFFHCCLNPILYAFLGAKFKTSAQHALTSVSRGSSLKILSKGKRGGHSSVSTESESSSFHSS
T3 sequence (P51681 whole entry, the tested form may be a part): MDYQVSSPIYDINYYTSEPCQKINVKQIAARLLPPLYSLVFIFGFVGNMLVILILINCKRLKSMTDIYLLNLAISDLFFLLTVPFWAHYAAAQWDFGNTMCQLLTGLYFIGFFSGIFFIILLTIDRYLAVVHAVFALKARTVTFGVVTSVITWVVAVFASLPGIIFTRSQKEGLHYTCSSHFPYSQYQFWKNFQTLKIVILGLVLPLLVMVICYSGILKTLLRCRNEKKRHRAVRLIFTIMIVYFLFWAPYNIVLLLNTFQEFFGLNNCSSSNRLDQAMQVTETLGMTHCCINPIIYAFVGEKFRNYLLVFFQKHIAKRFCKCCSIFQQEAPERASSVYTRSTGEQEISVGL

Compound	IC50 (HIV-1 IIIB; [6]) [µM]	IC50 ([1]; Table 3) [µM]	IC50 (HIV-1 Ba-L; [7]) [µM]	IC50 (HIV-1 IIIB; [8]) [µM]	IC50 (HIV-1 Ba-L; [9]) [µM]	CC50 (MAGI toxicity) [µM]	also measured
Fc1cc(CN2CCC(c3[nH]ncc3Cc3ccccc3)CC2)ccn1	> 10	10	10	–	–	–	–
CS(=O)(=O)c1cc(CN2CCC(c3[nH]ncc3Cc3ccccc3)CC2)ccn1	0.4	4	0.6	–	–	–	–
c1ccc(Cc2cn[nH]c2C2CCN(Cc3ccncn3)CC2)cc1	> 100	146	20	–	–	–	–
N#Cc1ccc(CN2CCC(c3[nH]ncc3Cc3ccccc3)CC2)nc1	> 100	211	43	–	–	–	–
CN(C)c1ccc(CN2CCC(c3[nH]ncc3Cc3ccccc3)CC2)cc1	–	–	5	–	–	–	MAGI Assay IC50 CXCR4 (HIV-1 IIIB; Table 3): inactive; RT IC50 ([1]; Table 3): inactive
COc1cccc(CN2CCC(c3[nH]ncc3Cc3ccccc3)CC2)c1Cl	2	1.5	1	–	–	–	–
c1ccc(Cc2cn[nH]c2C2CCN(Cc3ccnc4ccccc34)CC2)cc1	1	3	0.8	–	–	–	–
Clc1nccc(CN2CCC(c3[nH]ncc3Cc3ccccc3)CC2)c1Cl	1.5	4	0.8	–	–	–	–
[O-][n+]1ccc(CN2CCC(c3[nH]ncc3Cc3ccccc3)CC2)cc1	> 100	> 100	> 100	–	–	–	–
Cc1n[nH]c(C2CCN(Cc3ccncc3Cl)CC2)c1Cc1ccccc1	–	–	–	–	–	–	inhibition at 1 µM (HIV-1 IIIB; Human immunodeficiency virus 1, IIIB, MAGI, @ 1 uM, read-out: MAGI Assay % inhib CXCR4): 79%; activity at 100 µM ([1]; @ 100 uM, read-out: % Activity of RT): 4%; inhibition at 1 µM (HIV-1 Ba-L; @ 1 uM, read-out: MAGI Assay % inhib CCR5): 92%
c1ccc(CCCC2CCN(Cc3ccccn3)CC2)cc1	–	–	–	137	73.5	> 100	–
c1ccc(Cc2cn[nH]c2C2CCN(Cc3ccccc3)CC2)cc1 [1-benzyl-4-(4-benzyl-1H-pyrazol-3-yl)piperidine]	–	–	–	13	18.1	> 100	–
c1ccc(Cc2cn[nH]c2C2CCN(Cc3ccccn3)CC2)cc1 [2-((4-(4-benzyl-1H-pyrazol-3-yl)piperidin-1-yl)methyl)pyridine]	–	–	–	24.8	16.7	> 100	–
FC(F)(F)c1ccc(CN2CCC(c3[nH]ncc3Cc3ccccc3)CC2)cc1 [4-(4-benzyl-1H-pyrazol-3-yl)-1-(4 (trifluoromethyl)benzyl)piperidine]	–	–	–	13.2	9.72	18	–
CS(=O)(=O)c1ccc(CN2CCC(c3[nH]ncc3Cc3ccccc3)CC2)cc1 [4-(4-benzyl-1H-pyrazol-3-yl)-1-(4-(methylsulfonyl)benzyl)piperidine]	–	–	–	1	2	> 100	–
Clc1ccc(CN2CCC(c3[nH]ncc3Cc3ccccc3)CC2)cc1 [4-(4-benzyl-1H-pyrazol-3-yl)-1-(4-chlorobenzyl)piperidine]	–	–	–	5.33	5.61	18.6	–
c1ccc(Cc2cn[nH]c2C2CCN(CC3CCCCC3)CC2)cc1 [4-(4-benzyl-1H-pyrazol-3-yl)-1-(cyclohexylmethyl)piperidine]	–	–	–	58.5	49.4	142	–

Compound	IC50 (HIV-1 IIIB; [6]) [µM]	IC50 ([1]; Table 3) [µM]	IC50 (HIV-1 Ba-L; [7]) [µM]	IC50 (HIV-1 IIIB; [8]) [µM]	IC50 (HIV-1 Ba-L; [9]) [µM]	CC50 (MAGI toxicity) [µM]	also measured
N#Cc1ccc(CN2CCC(c3[nH]ncc3Cc3ccccc3)CC2)cc1 [4-((4-(4-benzyl-1H-pyrazol-3-yl)piperidin-1-yl)methyl)benzonitrile]	–	–	–	5.3	8.52	60	–
c1cc(CN2CCCNCCNCCCNCC2)ccc1CN1CCCNCCNCCCNCC1 [AMD3100]	–	–	–	–	–	–	inhibition of Nef-M1 induced MMD (CXCR4 [2]): inhibited
Cc1cn([C@H]2C[C@H](N=[N+]=[N-])[C@@H](CO)O2)c(=O)[nH]c1=O [AZT]	–	–	–	–	–	–	inhibition of Nef-M1 induced MMD (CXCR4 [2]): inactive
Clc1ccc(Cc2nc(CN3CCN(Cc4ccccn4)CC3)cs2)cc1 [Compound 1]	–	–	–	–	–	–	IC50 (HIV-1 IIIB; [10]): ~20 µM; IC50 (HIV-1 Ba-L; [11]): ~20 µM
c1ccc(Cc2c[nH]nc2C2CCN(Cc3ccccn3)CC2)cc1 [Compound 2]	–	–	–	–	–	–	interaction with HIV-1 reverse transcriptase (STD NMR) [3]: interacts; interaction with CXCR4 (STD NMR) (CXCR4 [4]): interacts; interaction with m7CCR5 (STD NMR) (m7CCR5): interacts; IC50 (HIV-1 IIIB; [10]): ~20 µM; IC50 (HIV-1 Ba-L; [11]): ~20 µM
Cc1ccc(-c2ccc3c(c2)C=C(C(=O)Nc2ccc(C[N+](C)(C)C4CCOCC4)cc2)CCC3)cc1.[Cl-] [TAK-779, reference compound]	–	–	–	–	–	–	inhibition of JRFL envelope / HeLa-C14 cell-cell fusion (CCR5): inhibited fusion
Clc1cnccc1CN1CCC(c2[nH]ncc2Cc2ccccc2)CC1 [drawing 40]	0.1	10	0.2	–	–	–	–
Clc1cc(CN2CCC(c3[nH]ncc3Cc3ccccc3)CC2)ccn1 [drawing 41]	0.2	10	0.3	–	–	–	–
c1ccc(Cc2cn[nH]c2C2CCN(Cc3cccc4ccccc34)CC2)cc1 [drawing 49]	7	20	8	–	–	–	–
c1ccc(Cc2cn[nH]c2C2CCN(Cc3ccc4ccccc4c3)CC2)cc1 [drawing 50]	4	23	4	–	–	–	–
c1ccc(Cc2cn[nH]c2C2CCN(Cc3ccc4ccccc4c3)CC2)cc1 [drawing 85, 4-(4-benzyl-1H-pyrazol-3-yl)-1-(naphthalen-2-ylmethyl)piperidine]	–	–	–	4.03	4.47	16.8	–
c1ccc(Cc2cn[nH]c2C2CCN(Cc3cccc4ccccc34)CC2)cc1 [drawing 86, 4-(4-benzyl-1H-pyrazol-3-yl)-1-(naphthalen-1-ylmethyl)piperidine]	–	–	–	6.79	7.63	17.9	–
Clc1cnccc1CN1CCC(c2[nH]ncc2Cc2ccccc2)CC1 [drawing 92, 4-((4-(4-benzyl-1H-pyrazol-3-yl)piperidin-1-yl)methyl)-3-chloropyridine]	–	–	–	0.21	0.14	67	–
Clc1cc(CN2CCC(c3[nH]ncc3Cc3ccccc3)CC2)ccn1 [drawing 93, 4-((4-(4-benzyl-1H-pyrazol-3-yl)piperidin-1-yl)methyl)-2-chloropyridine]	–	–	–	0.28	0.17	34	–
O=C1Nc2ccc(Cl)cc2[C@@](C#CC2CC2)(C(F)(F)F)O1 [efavirenz]	–	–	–	–	–	–	loss of antiviral activity against K103N/Y181C mutant compared to wild type [5]: 70 fold
maraviroc	–	–	–	–	–	–	inhibition of Nef-M1 induced MMD (CXCR4 [2]): inactive
